In article PMC10101011, “A Retro-Aldol Reaction Prompted the Evolvability of a Phosphotransferase System for the Utilization of a Rare Sugar” (Microbiology Spectrum, 2023):

Assays:
Type in all cases: biochemical
[1] = target: T1, EC_KbaY (Escherichia coli, UniProt P0AB74); experiment: coupled NADH oxidation assay (TPI, G3PDH); details: 1 mM substrate, 10 mM MgCl2, pH 8.0, 25 °C
T1 construct: gene kbaY; catalytic subunit alone without KbaZ, His-tagged, pET-28a(+), 31 kDa

[2] = target: T2, EC_GatY (Escherichia coli, UniProt P0C8J6); experiment: coupled NADH oxidation assay (TPI, G3PDH); details: 1 mM substrate, 10 mM MgCl2, pH 8.0, 25 °C
T2 construct: gene gatY; catalytic subunit alone without GatZ, His-tagged, pET-28a(+), 30 kDa
T2 sequence (P0C8J6 whole entry): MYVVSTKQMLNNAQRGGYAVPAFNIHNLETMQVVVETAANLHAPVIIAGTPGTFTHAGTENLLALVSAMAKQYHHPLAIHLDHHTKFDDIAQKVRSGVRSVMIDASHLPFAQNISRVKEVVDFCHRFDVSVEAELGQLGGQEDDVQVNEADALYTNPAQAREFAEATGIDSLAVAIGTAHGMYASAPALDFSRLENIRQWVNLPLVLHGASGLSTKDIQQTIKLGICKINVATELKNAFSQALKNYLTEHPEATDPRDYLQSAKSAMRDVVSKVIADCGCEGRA

[3] = target: T3, FruK (EC_FruK) (Escherichia coli, UniProt P0AEW9, A39S); experiment: coupled NADH oxidation assay (GatY, TPI, G3PDH); details: 2 mM ATP, 2 mM substrate, 10 mM MgCl2, pH 8.0, 25 °C
T3 construct: His-tagged, pET-28a(+), expressed in E. coli BL21(DE3)
T3 sequence (P0AEW9 whole entry A39S): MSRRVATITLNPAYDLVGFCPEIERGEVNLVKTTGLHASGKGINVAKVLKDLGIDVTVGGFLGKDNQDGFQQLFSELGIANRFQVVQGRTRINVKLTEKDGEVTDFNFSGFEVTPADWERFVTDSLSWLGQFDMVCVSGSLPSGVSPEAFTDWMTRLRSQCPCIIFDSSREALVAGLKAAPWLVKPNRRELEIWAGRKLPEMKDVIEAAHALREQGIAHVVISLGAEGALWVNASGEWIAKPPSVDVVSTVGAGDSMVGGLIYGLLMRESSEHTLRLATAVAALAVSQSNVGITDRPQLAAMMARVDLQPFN

[4] = target: T4, FruK (EC_FruK) (Escherichia coli, UniProt P0AEW9); experiment: coupled NADH oxidation assay (FbaA, TPI, G3PDH); details: 2 mM ATP, 2 mM substrate, 10 mM MgCl2, pH 8.0, 25 °C
T4 construct: His-tagged, pET-28a(+), expressed in E. coli BL21(DE3)
T4 sequence (P0AEW9 whole entry): as the sequence (P0AEW9 whole entry A39S) above, with S39A counted along it

T1 sequence (P0AB74 whole entry): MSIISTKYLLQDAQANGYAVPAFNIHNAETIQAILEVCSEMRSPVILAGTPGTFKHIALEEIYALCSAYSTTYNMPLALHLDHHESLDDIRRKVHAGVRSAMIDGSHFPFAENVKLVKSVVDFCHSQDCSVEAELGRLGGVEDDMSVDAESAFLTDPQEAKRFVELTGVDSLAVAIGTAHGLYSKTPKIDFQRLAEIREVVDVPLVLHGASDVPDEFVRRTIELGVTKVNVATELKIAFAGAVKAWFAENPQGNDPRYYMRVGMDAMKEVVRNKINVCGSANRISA

O=P(O)(O)OC[C@H]1OC(O)(COP(=O)(O)O)[C@@H](O)[C@H]1O (stereo partly drawn) [D-Tag-1,6-BP]
coupled NADH oxidation assay (TPI, G3PDH) [1]: EC_GatY and EC_KbaY showed much lower D-Tag-1,6-BP cleavage activity than BL_GatY | coupled NADH oxidation assay (TPI, G3PDH) [2]: EC_GatY and EC_KbaY showed much lower D-Tag-1,6-BP cleavage activity than BL_GatY

O=P(O)(O)OC[C@H]1OC(O)(CO)[C@@H](O)[C@H]1O (stereo partly drawn) [D-Tag-6P]
coupled NADH oxidation assay (GatY, TPI, G3PDH) [3]: FruK_A39S showed relatively higher activities for D-Tag-6P than FruK_WT

O=P(O)(O)OCC1(O)O[C@H](CO)[C@@H](O)[C@@H]1O (stereo partly drawn) [D-Fru-1P]
coupled NADH oxidation assay (FbaA, TPI, G3PDH) [4]: for primary D-Fru-1P were much lower than that of FruK_WT
